This note sets out measurements from patent publication EP0207193A2, “Synergetic combination of flupirtin and 4-acetamido-phenol” (Degussa Aktiengesellschaft, priority 1985, dated 1987).

This assay has as its system Albino-Ratte. As to the kind of experiment: Randall-Selitto test (analgesic effect, determination of synergism). The format is in vivo. The following applies: per os; for Steigerung der analgetischen Wirksamkeit um den Faktor: ED50 alone versus ED50 in the combination, rat; for ED50: Rattus norvegicus, po. The text has this:
Die erfindungsgemäße Komtination zeigt beispielsweise im Randall-Selitto-Test einen Synergismus der analgetischen Wirkung, die gegenüber der Analgesie des reinen Flupirtin (Das Fiupirt^in wird stets als Maleat, Gluconat oder Hydrochlorid untersucht.) und dem reinen 4-Acetamido-phenol überadditiv gesteigert ist.
Die Wirkung der erfindungsgemäßen Kombination geht beispielsweise aus folgenden Versuchen hervor: Diese Untersuchungen erfolgten im Randall-Selitto-Test an der Albino-Ratte. Hierbei wird sowohl die Flupirtin-Dosis (Hydrochlorid) konstant gehalten, als auch bei konstanter Dosis des 4-Acetamido-phenols die Flupirtin-. Dosis geändert und jeweils im ersten Fall die ED50 der analgetischen Wirkung des 4-Acetamido-phenols und im zweiten Fall die analgetische Hauptwirkung des Flupirtins in der Kombination bestimmt (Methode der Bestimmung des Synergismus nach Forth, Henschler und Rummel, Lehrbuch Pharmakologie und Toxikologie, Ausgabe 1980, Seite 65; Wissenschaftsverlag, Bibliographisches Institut Mannheim, Wien und Zürich).
So wird beispielsweise in dem vorstehend angegebenen Test die analgetisch wirksame ED50 des Flupirtins von 30,94 mg/kg per os auf 1,65 mg/kg und die analgetisch wirksame ED50 des 4-Acetamido-phenols (Paracetamol) von 71,47 mg/kg auf 0,6 mg/kg per os gesenkt. In diesem Test erfolgt also eine Steigerung der analgetischen Wirksamkeit des Flupirtins um den Faktor 18 und hinsichtlich der analgetischen Wirkung des Paracetamols um den Faktor 119.

Read-outs that look alike come from different tables or passages of the source.

For the compound `CC(=O)Nc1ccc(O)cc1` [4-Acetamido-phenol], the “Steigerung der analgetischen Wirksamkeit um den Faktor” value was 119. Also, the ED50 (4-Acetamido-phenol alone, read-out: analgetisch wirksame ED50 des 4-Acetamido-phenols (Paracetamol)) was determined as 71.5 mg/kg. Further, for the setting “4-Acetamido-phenol in combination with a constant dose of Flupirtin (hydrochloride), read-out: analgetisch wirksame ED50 des 4-Acetamido-phenols (Paracetamol)”, the ED50 came out at 0.6 mg/kg.

With `CCOC(=O)Nc1ccc(NCc2ccc(F)cc2)nc1N` [Flupirtin, 2-Amino-3-carbethoxyamino-6-(4-fluor-be-nzylamino)-pyridin], the “Steigerung der analgetischen Wirksamkeit um den Faktor” value came out at 18. Also, the ED50 (Flupirtin (hydrochloride) in combination with a constant dose of 4-Acetamido-phenol, read-out: analgetisch wirksame ED50 des Flupirtins) worked out at 1.65 mg/kg. In addition, the median effective dose (ED50) (Flupirtin alone (hydrochloride), read-out: analgetisch wirksame ED50 des Flupirtins) came to 30.9 mg/kg.
